Data reported in paper PMC4397911 (Bioorganic & medicinal chemistry letters, 2013).

Key:
[1] = target: NA from Virus H5N1 (soluble viral NA, N1) (Influenza A virus, UniProt Q6DPL2); assay: biochemical; settings: IC50 inhibition of soluble NA from Virus H5N1
[2] = target: NA from Virus H3N2 (soluble viral NA, N2) (Influenza A virus, UniProt Q91MA2); assay: biochemical; settings: IC50 inhibition of soluble NA from Virus H3N2
Sequence of NA from Virus H3N2 (soluble viral NA, N2) (Q91MA2 31-469 limits assumed): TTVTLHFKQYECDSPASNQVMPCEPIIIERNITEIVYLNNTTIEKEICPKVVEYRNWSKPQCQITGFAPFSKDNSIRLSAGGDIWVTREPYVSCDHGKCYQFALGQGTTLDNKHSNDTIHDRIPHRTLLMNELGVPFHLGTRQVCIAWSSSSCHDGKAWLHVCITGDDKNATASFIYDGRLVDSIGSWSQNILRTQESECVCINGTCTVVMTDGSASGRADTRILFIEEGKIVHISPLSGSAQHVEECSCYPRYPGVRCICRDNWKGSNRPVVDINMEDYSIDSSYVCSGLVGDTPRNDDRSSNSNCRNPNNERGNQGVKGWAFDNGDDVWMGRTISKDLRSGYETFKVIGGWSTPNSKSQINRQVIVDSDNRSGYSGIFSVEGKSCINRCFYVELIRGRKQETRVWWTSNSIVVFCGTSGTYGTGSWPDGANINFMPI

Sequence of NA from Virus H5N1 (soluble viral NA, N1) (Q6DPL2 35-449 limits assumed): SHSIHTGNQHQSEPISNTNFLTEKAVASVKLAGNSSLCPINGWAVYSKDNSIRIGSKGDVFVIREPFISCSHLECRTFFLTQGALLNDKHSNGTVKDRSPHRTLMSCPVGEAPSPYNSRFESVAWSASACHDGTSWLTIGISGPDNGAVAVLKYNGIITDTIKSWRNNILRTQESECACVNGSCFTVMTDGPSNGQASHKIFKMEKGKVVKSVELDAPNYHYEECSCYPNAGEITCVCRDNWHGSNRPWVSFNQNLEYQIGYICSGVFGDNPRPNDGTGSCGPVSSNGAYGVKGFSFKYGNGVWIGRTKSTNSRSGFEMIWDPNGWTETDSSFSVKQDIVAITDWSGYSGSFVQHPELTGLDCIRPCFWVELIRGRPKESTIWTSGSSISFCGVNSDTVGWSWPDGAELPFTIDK

## CC(=O)N[C@H]1[C@H]([C@H](O)[C@H](O)CO)OC(SCCCCCCS)(C(=O)O)C[C@@H]1NC(=N)N (stereo partly shown) [SG]
[1]
  IC50: 0.1 ± 0.02 µM

## CC(=O)N[C@H]1[C@H]([C@H](O)[C@H](O)CO)OC(SCCCCCCS)(C(=O)O)C[C@@H]1N (stereo partly shown) [SA]
[2]
  IC50: 60 to 180 µM
[1]
  IC50: 60 to 180 µM

## CC(=O)N[C@H]1[C@H]([C@H](O)[C@H](O)CO)OC(SCCOCCOCCOCCOCCOCCSC2(C(=O)O)C[C@H](N)[C@@H](NC(C)=O)[C@H]([C@H](O)[C@H](O)CO)O2)(C(=O)O)C[C@@H]1N (stereo partly shown) [HexaEG-SA]
[2]
  IC50: 11 ± 2 µM
[1]
  IC50: 0.57 ± 0.06 µM

## CC(=O)N[C@H]1[C@H]([C@H](O)[C@H](O)CO)OC(SCCOCCOCCOCCOCCSC2(C(=O)O)C[C@H](N)[C@@H](NC(C)=O)[C@H]([C@H](O)[C@H](O)CO)O2)(C(=O)O)C[C@@H]1N (stereo partly shown) [PentaEG-SA]
[2]
  IC50: 10 ± 2 µM
[1]
  IC50: 1.1 ± 0.1 µM
